The data set is described as follows: Hygroscopicity of the Hydrochloride (weight gain at 75% relative humidity). The class given is physicochemical. To be noted: 43 days.

The structures appear in SMILES notation.

With `CN(CCOc1ccc(CC2SC(=O)NC2=O)cc1)c1ccccn1.Cl` (centres unmarked) [Hydrochloride, 5-[4-[2-(N-methyl-N-(2-pyridyl)amino)ethoxy]benzyl]thiazolidine-2,4-dione hydrochloride], the hygroscopicity classification entry (75% relative humidity at 21° C.) is listed as “non-hygroscopic (<2%)”. In addition, for the setting “75% relative humidity atmosphere at 21° C., constant weight attained, sample of Example 1”, the percentage weight gain is listed as 0.4%.

Source of the values: patent publication US7074811B2 (SmithKline Beecham p.l.c., priority 2000, dated 2006).
